Results as given in patent US8178077B2, “Drug development target protein and target gene, and method of screening” (Reverse Proteomics Research Institute Co., Ltd., priority 2004, dated 2012).

Assays:
[1] = molecular target: T1, FLJ39196 clone-derived protein (human neurocalcin δ) (Homo sapiens, UniProt P61601); assay: SEC/MS interaction analysis (size exclusion spin column and mass analysis) with FLJ39196 clone-derived protein; format: binding
T1 construct: A human full-length cDNA clone was expressed as a protein with an N-terminal His tag; His tag (N); made in house; host or cells: Escherichia coli BL21star(DE3)pLysS (pDEST17 Gateway expression plasmid)
How it was run: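 Unmodified, non-immobilized protein was mixed with compound and separated by size exclusion on 384-well Unifilter 100 spin columns packed with 10 μL Bio-Gel P6. The protein-fraction filtrate was collected in 50% acetonitrile, deproteinized, concentrated, redissolved in 10 μL of 50% methanol, and 2 μL was injected for ESI mass analysis of compound spectral intensity.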

[2] = molecular target: T2, FLJ20589 clone-derived protein (human hippocalcin-like protein 1, VILIP-3) (Homo sapiens, UniProt P37235); assay: SEC/MS interaction analysis (size exclusion spin column and mass analysis) with FLJ20589 clone-derived protein; format: binding
T2 construct: A human full-length cDNA clone was expressed as a protein with an N-terminal His tag; His tag (N); made in house; host or cells: Escherichia coli BL21star(DE3)pLysS (pDEST17 Gateway expression plasmid)

[3] = protein 0 μM (protein-free reference), compound 1 μM
[4] = protein 0 μM (protein-free reference), compound 10 μM
[5] = protein 0 μM (protein-free reference), compound 100 μM
[6] = protein 0 μM (protein-free reference), compound 250 μM
[7] = protein 23.75 μM, compound 1 μM
[8] = protein 23.75 μM, compound 10 μM
[9] = protein 23.75 μM, compound 100 μM
[10] = protein 23.75 μM, compound 250 μM
[11] = protein 47.5 μM, compound 10 μM
[12] = protein 47.5 μM, compound 100 μM
[13] = protein 47.5 μM, compound 250 μM

Row | Compound | spectral intensity of the compound in the SEC spin column filtrate (protein fraction) [1, 3] | spectral intensity of the compound in the SEC spin column filtrate (protein fraction) [1, 4] | spectral intensity of the compound in the SEC spin column filtrate (protein fraction) [1, 5] | spectral intensity of the compound in the SEC spin column filtrate (protein fraction) [1, 6] | spectral intensity of the compound in the SEC spin column filtrate (protein fraction) [1, 7] | spectral intensity of the compound in the SEC spin column filtrate (protein fraction) [1, 8] | spectral intensity of the compound in the SEC spin column filtrate (protein fraction) [1, 9] | spectral intensity of the compound in the SEC spin column filtrate (protein fraction) [1, 10] | spectral intensity of the compound in the SEC spin column filtrate (protein fraction) ([1]; protein 47.5 μM, compound 1 μM) | spectral intensity of the compound in the SEC spin column filtrate (protein fraction) [1, 11] | spectral intensity of the compound in the SEC spin column filtrate (protein fraction) [1, 12] | spectral intensity of the compound in the SEC spin column filtrate (protein fraction) [1, 13] | spectral intensity of the compound in the SEC spin column filtrate (protein fraction) [2, 3] | spectral intensity of the compound in the SEC spin column filtrate (protein fraction) [2, 4] | spectral intensity of the compound in the SEC spin column filtrate (protein fraction) [2, 5] | spectral intensity of the compound in the SEC spin column filtrate (protein fraction) [2, 6] | spectral intensity of the compound in the SEC spin column filtrate (protein fraction) [2, 7] | spectral intensity of the compound in the SEC spin column filtrate (protein fraction) [2, 8] | spectral intensity of the compound in the SEC spin column filtrate (protein fraction) [2, 9] | spectral intensity of the compound in the SEC spin column filtrate (protein fraction) [2, 10] | further results
1 | CN1CCN(CCCN2c3ccccc3Sc3ccc(C(F)(F)F)cc32)CC1 [Trifluoperazine] | 6645734 | 7904072 | 204390563 | 632906281 | 7580781 | 40058178 | 293702761 | 1292987653 | 7231665 | 14142338 | 5846308 | 2293500744 | 1499445 | 1420853 | 2266965 | 4146130 | 469062 | 893634 | 41947038 | 57062370 | spectral intensity of the compound in the SEC spin column filtrate (protein fraction) ([2]; protein 47.5 μM, compound 1 μM): 459554; spectral intensity of the compound in the SEC spin column filtrate (protein fraction) [2, 11]: 2953415; spectral intensity of the compound in the SEC spin column filtrate (protein fraction) [2, 12]: 67433540; spectral intensity of the compound in the SEC spin column filtrate (protein fraction) [2, 13]: 116228047
2 | O=C1CN=C(c2ccccc2)c2cc(Cl)ccc2N1CC1CC1 [prazepam] | 45379226 | 21988256 | 130413200 | 139016191 | 38417587 | 46660512 | 258681345 | 517983224 | 26479402 | 67670753 | 264065408 | 706383483 | 563508 | 752185 | 5911478 | 8158416 | 372254 | 1912944 | 27662748 | 53037838 | spectral intensity of the compound in the SEC spin column filtrate (protein fraction) ([2]; protein 47.5 μM, compound 1 μM): 603084; spectral intensity of the compound in the SEC spin column filtrate (protein fraction) [2, 11]: 8279573; spectral intensity of the compound in the SEC spin column filtrate (protein fraction) [2, 12]: 67316791; spectral intensity of the compound in the SEC spin column filtrate (protein fraction) [2, 13]: 87274751
